Our source for the ED50, inhibition in vivo and LD50 values is patent publication US5158950A, “1,3-dithiol-2-ylidene derivatives and process for the preparation thereof” (Yuhan Corporation, Ltd., priority 1987, dated 1992).

Data set [1] concerns serum ALT level after CCl4 treatment. As to the kind of experiment: Determination of 50% inhibitory dose (ID50) against CCl4-induced serum ALT increase. It is filed as in vivo. Conditions: Mus musculus; mice, oral, 6 h before CCl4; estimated from dose-response curve at 50, 25, 12.5, 6.25 mg/kg. On the procedure:
Principle The various doses of test compounds were administered to mice, followed by the treatment with CCl4 after 6 hours. 24 Hours after the CCl4 treatment, the serum ALT level of the animals were determined. The hepatoprotective effect of the test compounds and the doses were plotted to form dose-response curves. The ID50 doses of the test compounds were estimated from the dose-response curves.
Method; The experimental animals were divided into normal, CCl4 treated and test compound treated groups. Each group consisted of 8 mice with body weight of 20-25 grams. The test compounds were suspended in 0.2% CMC-Na solution and administered orally at a dose of 50 mg, 25 mg, 12.5 mg, or 6.25 mg/125 ml/kg body weight. Only the vehicle, 0.2% CMC-Na solution, was administered to the normal and to the CCl4 treated group instead of the test compound suspension. 6 Hours after the drug administration, the CCl4 solution in olive oil was administered orally to the CCl4 treated and the test compound treated groups at the dose of 50 ul/25 ml olive oil/kg body weight. The normal group was administered olive oil only at the same dose. 24 Hours after the CCl4 administration, blood samples were collected from the orbital sinus of the animals and the sera were obtained by centrifugation. The serum ALT activities were monitored and the hepatoprotective effect of the test compounds were calculated by the same method as described in experiment 1. The inhibitory percentages were plotted against the corresponding doses of the test compounds to make dose-response curves. The 50% inhibitory dose of test compound was estimated from the dose-response curve.

The subject of data set [2] is serum ALT activity induced by CCl4. As to the kind of experiment: Protective effect against acute hepatic damage induced by carbon tetrachloride (serum ALT). It is filed as in vivo. The settings on record: Mus musculus; mice, 50 mg/kg oral, 6 h before CCl4 (50 ul/kg oral); ALT 24 h after CCl4; read-out: Inhibitory (%): protective effect against increase of serum ALT activity induced by CCl4. On the procedure: Principle; Carbon tetrachloride (CCl4) is a well-known hepatotoxic agent, thus widely used to produce experimental animal models for screening the potential drugs acting upon hepatic diseases. In this experiment test compounds were administered to mice prior to treatment with CCl4. 24 Hours after the CCl4 treatment, the animals were sacrificed and serum alanine aminotransferase (ALT) levels were determined. The hepatoprotective effect of a test compound was evaluated by the suppressive action against the increase of serum ALT induced by CCl4.
Method; The experimental animals were divided into normal, CCl4 treated and test compound treated groups. Each group consisted of 8 mice with body weight of 20-25 grams. The test compounds were suspended in 0.2% sodium carboxy methyl cellulose (CMC-Na) solution and administered orally at the dose of 50 mg/125 ml/kg body weight. Only the vehicle, 0.2% CMC-Na solution, was administered to the normal and to the CCl4 treated group instead of the test compound suspension. 6 Hours after the drug administration, the CCl4 solution in olive oil was administered orally to the CCl4 treated- and the test compound treated group at the dose of 50 ul/25 ml olive oil/kg body weight. The normal group was administered olive oil only at the same dose. 24 Hours after the CCl4 administration, blood samples were collected from the orbital sinus of the animals and the sera were obtained by centrifugation The serum ALT activities were monitored using an automatic blood analyzer (Gilford, SBA 300). The hepatoprotective effect of the test compounds was expressed by the suppressive percentage against the increase of serum ALT level induced by CCl4 calculated by the following formula; [formula]

Data set [3] in a line: Acute oral toxicity, median lethal dose (LD50). Conditions: mouse, in vivo, male ICR mice, deaths counted for 14 days. On the procedure:
Each test compound was suspended in a 0.2% CMC-Na solution in various concentrations to make test suspension. The test suspensions were administered orally to male ICR mice (10 in each group) at various doses. The number of dead mice was counted for 14 days and the value of mediam lethal dose (LD50, g/kg) was calculated by the Hitchifield-Wilcoxon method.

Some results are limits rather than exact numbers.

Take `CC(C)OC(=O)C(C(=O)Nc1cc[nH]n1)=C1SC=CS1` [20(a), Isopropyl 2-(1,3-dithiol-2-ylidene)-2-[N-(3-pyrazolyl)-carbamoyl]acetate]: in data set [1], the ED50 is 8 mg/kg. For the same compound, the inhibition in vivo at 50 mg/kg in data set [2] came out at 102%. Also, the median lethal dose (LD50) at 336 h in data set [3] worked out at 5000 mg/kg.

Regarding `CC(C)OC(=O)C(C(=O)Nc1nnn[nH]1)=C1SC=CS1` [20(b), Isopropyl 2-(1,3-dithiol-2-ylidene)-2-[N-(5-tetrazolyl)-carbamoyl]acetate], in data set [1], the 50% effective dose (ED50) is 10 mg/kg. Moreover, the inhibition in vivo at 50 mg/kg in data set [2] was 99.9%. The LD50 at 336 h in data set [3] came to 5000 mg/kg.

`CC(C)OC(=O)C(C(=O)Nc1ccc(O)cc1)=C1SC=CS1` [22(a), Isopropyl 2-(1,3-dithiol-2-ylidene)-2-[N-(4-hydroxyphenyl)carbamoyl]acetate]: in data set [1], the ED50 is 12.5 mg/kg. Further, the inhibition in vivo at 50 mg/kg in data set [2] turned out to be 99.2%. Further, the LD50 at 336 h in data set [3] is more than 5000 mg/kg.
